{
  "source": "patent US20250066310A1",
  "about": "“MULTI-SUBSTITUTED URACIL DERIVATIVE AND PREPARATION METHOD THEREFOR AND APPLICATION THEREOF” (HANGZHOU ADAMERCK PHARMLABS INC., priority 2021, published 2025)",
  "key": {"[1]": {"test_system": "rats with focal cerebral ischemia (MCAO)/reperfusion", "assay": "Prophylactic administration, cerebral ischemia-reperfusion injury (MCAO/R) in rats", "format": "in vivo", "settings": "6 mg/kg tail vein, Mean ± SD, n = 8", "procedure": "Experimental methods: SD rats were randomly divided into 6 groups, set as sham group, model control group, positive control drug ozagrel (6 mg/kg) group, and test drug compound 1-1 high (9 mg/kg), medium (3 mg/kg), and low (1 mg/kg) dose group. The administered groups were preadministered by tail vein injection, and the sham and model control groups were given an equal volume of saline, once a day for 3 consecutive days. Ten minutes after the last administration, the rat MCAO/R model was established, and reperfusion was performed 2 h after ischemia. 24 h after MCAO reperfusion, neurobehavioral scores were performed to determine the neurological function of rats; 2,3,5-triphenyltetrazolium chloride (TTC) staining method was used to determine the rate of cerebral infarction and cerebral water content in rats."}, "[2]": {"test_system": "mice injected with ellagic acid via the tail vein", "assay": "Effect on in vivo clotting time in mice (ellagic acid tail vein injection)", "settings": "Mus musculus, iv, 100 mg/kg i.g. for 4 days, ellagic acid i.v. 1 h after last dose, vs model group, read-out: Clotting time prolongation (%)", "procedure": "The control and model groups were gavaged with distilled water, and the positive clopidogrel group, and the test substance group were gavaged orally (i.g.) with drug solution in a volume of 0.1 mL/10 g for 4 consecutive days. 1 h after the last administration, all groups were injected with 0.15 mL/10 g of 0.3% ellagic acid solution via tail vein injection except for the blank group which was injected with physiological saline: 0.1 ml/10 g. After 5 min, glass capillaries were used for blood collection through the retro-orbital venous plexus, and the appearance time of coagulation filaments was recorded by glass capillaries at 10-second intervals.\nCalculation equation for prolongation of clotting time:\nProlongation of clotting time (%)=[(mean value of clotting time in blank or administered group/mean value of clotting time in model group)−1]×100%"}, "ICR mice": {"test_system": "ICR mice", "assay": "Effect on in vivo bleeding time in mice (tail cut)", "settings": "15 mg/kg i.g. once daily for 4 days", "procedure": "A normal control group (blank), positive control group (clopidogrel) and experimental groups were set up with 10 ICR mice (male, weighed about 25 g) in each group. Animals in each group were administered the corresponding drug solution by oral gavage (i.g.) at 0.1 ml/10 g body weight, and the blank control group was given distilled water, once daily for 4 days. On the 4th day, 1 h after the administration of the drug, the animals were anesthetized by intraperitoneal injection of sodium barbiturate at a dose of about 50 mg/kg, and 20 min later, the tails of the mice were cut at a distance of 3 mm from the tip of the tail, and at regular intervals, absorbent paper was used to dip the blood at the severed tails until no blood exuded, which was recorded as the bleeding time, and the results of the experiment were shown in Table 2.\nCalculation equation for prolongation of bleeding time: […]"}, "[3]": {"test_system": "rats with myocardial ischemia-reperfusion injury", "assay": "Myocardial ischemia-reperfusion injury caused by coronary artery ligation in rats", "format": "in vivo", "settings": "x ± s, n = 8", "procedure": "Experimental Methods: A model of myocardial ischemia/reperfusion (MI/R) injury caused by coronary artery ligation was established in rats, and animals were grouped into high-dose (20 mg/kg), medium-dose (10 mg/kg), low-dose (5 mg/kg) of the test drug, clopidogrel (7.5 mg/kg), sham, and model groups. Equal volume of 0.5% CMC-Na was administered at 0.5 ml/100 g body weight in both sham and model groups. The drug was administered by gavage (i.g.) once a day for 5 consecutive days. Modeling was performed 30 min after the last administration, and after modeling, 8 successfully modeled rats were selected from each group for subsequent experiments. The sham group was placed a wire under the left anterior descending branch of the coronary artery according to the model preparation method without ligation, and the other groups were modeled according to the model preparation method. The effects of the test drugs on the cardiac infarction rate and the biochemical indexes of creatine kinase (CK), lactate dehydrogenase (LDH), malondialdehyde (MDA), and superoxide dismutase (SOD) in plasma were detected, and TTC staining of the heart was performed to detect the effects of the test drugs on the area of myocardial infarction in MI/R rats."}, "[4]": {"test_system": "rats with autologous thrombus and thrombin-induced cerebral ischemic injury", "assay": "Ischemic brain injury induced by autologous thrombus and thrombin in rats (i.v., alone or with urokinase)", "format": "in vivo, SD rats", "settings": "n = 10", "procedure": "Experimental Methods: A model of cerebral ischemic injury in SD rats was prepared by embolizing the middle cerebral artery of rats with autologous thrombus and thrombin via the external carotid artery to the internal carotid artery and the rats were randomly divided into 5 groups according to behavioral scores, a sham group (only the external carotid artery was isolated); a model-control group (saline was given to both groups in equal volume); urokinase (5000 U/kg) group; compound 1-1 ([…]) group; with 20 animals in each group (10 for detecting the rate of cerebral infarction, and the other 10 for pathological testing). Each group was administered slowly in the tail vein (1 ml per minute) 2 h after modeling, and the decrease in blood flow was monitored after thrombin injection and 120 min after administration. Neurobehavioral scoring was performed on the rats after 24 h to determine the neurological function of the rats; 2,3,5-triphenyltetrazolium chloride (TTC) staining was used to determine the rate of cerebral infarction and cerebral water content, and hematoxylin-eosin (HE) staining was used to observe the pathological damage of the brain in rats administered with the drug 2 h after cerebral ischemia."}},
  "data": [
    {"molecule": "O=C(O)/C=C/c1ccc(Cn2ccnc2)cc1", "note": "[Ozagrel, ozagrel, reference compound]", "values": [
      {"measurement": "Cerebral infarction rate (%)", "setting": "[1]; 3 days before MCAO/R, 24 h after reperfusion", "value": "17.07 ± 10.69", "unit": "%"},
      {"measurement": "behavioral score", "setting": "[1]; MCAO/R", "value": "1.50 ± 0.76"},
      {"measurement": "cerebral water content (%)", "setting": "[1]; MCAO/R", "value": "81.00 ± 0.98", "unit": "%"}
    ]},
    {"molecule": "COC(=O)[C@H](c1ccccc1Cl)N1CCc2sccc2C1", "note": "[Clopidogrel, clopidogrel, reference compound]", "values": [
      {"measurement": "change in vivo at 100 mg/kg", "setting": "[2]", "value": 36.8, "unit": "%"},
      {"measurement": "Bleeding time prolongation (%)", "setting": "ICR mice", "value": ">579.89", "unit": "%"},
      {"measurement": "Cardiac infarction rate (%)", "setting": "[3]; 7.5 mg/kg i.g. once a day for 5 days", "value": "14.29 ± 6.82", "unit": "%"},
      {"measurement": "Pathological Score", "setting": "[3]; myocardium, 7.5 mg/kg i.g.", "value": "1.88 ± 0.64"},
      {"measurement": "CK (U/mL)", "setting": "[3]; plasma, 7.5 mg/kg i.g.", "value": "0.32 ± 0.20", "unit": "U/mL"},
      {"measurement": "LDH (U/L)", "setting": "[3]; plasma, 7.5 mg/kg i.g.", "value": "8522.72 ± 626.17", "unit": "U/L"},
      {"measurement": "MDA", "setting": "[3]; plasma, 7.5 mg/kg i.g.", "value": "15.90 ± 1.37", "unit": "nmol/mL"},
      {"measurement": "SOD (U/mL)", "setting": "[3]; plasma, 7.5 mg/kg i.g.", "value": "40.92 ± 1.67", "unit": "U/mL"}
    ]},
    {"molecule": "Urokinase", "values": [
      {"measurement": "Cerebral infarction rate", "setting": "[4]; 5000 U/kg i.v., TTC staining, mean ± S.D.", "value": "9.72 ± 9.89"},
      {"measurement": "behavioral score", "setting": "[4]; 5000 U/kg i.v., after 24 h, Mean ± SD", "value": "1.60 ± 0.70"},
      {"measurement": "cerebral water content (%)", "setting": "[4]; 5000 U/kg i.v., mean ± S.D.", "value": "79.78 ± 0.72", "unit": "%"},
      {"measurement": "Percentage decrease two hours after administration (%)", "setting": "[4]; cerebral blood flow, 5000 U/kg i.v. 2 h after modeling, Mean ± SD", "value": "37.12 ± 4.49", "unit": "%"},
      {"measurement": "Percentage decrease after thrombin injection (%)", "setting": "[4]; cerebral blood flow, before administration, 5000 U/kg group, Mean ± SD", "value": "50.10 ± 7.94", "unit": "%"},
      {"measurement": "Pathology Score", "setting": "[4]; cerebral ischemic areas, 5000 U/kg i.v., mean ± SD", "value": "1.75 ± 0.86"}
    ]}
  ]
}
